IC50 data for 24 compounds are collected here from patent publication US20040224958A1, “Pyridopyrimidinone derivatives for treatment of neurodegenerative disease” (priority 2000, published 2004).

Molecules are shown by their SMILES. Read-outs that look alike come from different tables or passages of the source.

One experiment has as its target cdc2/cyclinB (Homo sapiens, UniProt P06493). The experiment is described as follows: Cyclin-Dependent Kinase Assay cdc2/cyclinB.
For a further experiment, the target named is cdk4/D (Homo sapiens, UniProt P11802). The experiment is described as follows: Cyclin-Dependent Kinase 4 (cdk4) Assay. Format: biochemical. The note with it: read-out: cdk4/D IC50.
For another experiment, the target named is cdk2/cyclinA (Homo sapiens, UniProt P24941). The experiment is described as follows: Cyclin-Dependent Kinase Assay cdk2/cyclinA.
The target in another experiment is cdk2/cyclinE (Homo sapiens, UniProt P24941). The experiment is described as follows: Cyclin-Dependent Kinase Assay cdk2/cyclinE.
The target in the next experiment is Cdk5/p25 (Homo sapiens, UniProt Q00535). The experiment is described as follows: Cyclin-Dependent Kinase 5 High Throughput Screening (cdk5-HTS) Assay. The note with it: high throughput screen. Format: biochemical. Put shortly: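 IC50 determined from 33P incorporation into GST-RbCOOH captured on glutathione plates and read by scintillation counting. Reaction: 1.0 μg/mL Cdk5/p25, 20 μM [γ33P]ATP, pH 7.4 Tris buffer with MgCl2 and DTT, 30 min at room temperature, stopped with EDTA.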

cdc2/cyclinB, sequence (P06493 whole entry): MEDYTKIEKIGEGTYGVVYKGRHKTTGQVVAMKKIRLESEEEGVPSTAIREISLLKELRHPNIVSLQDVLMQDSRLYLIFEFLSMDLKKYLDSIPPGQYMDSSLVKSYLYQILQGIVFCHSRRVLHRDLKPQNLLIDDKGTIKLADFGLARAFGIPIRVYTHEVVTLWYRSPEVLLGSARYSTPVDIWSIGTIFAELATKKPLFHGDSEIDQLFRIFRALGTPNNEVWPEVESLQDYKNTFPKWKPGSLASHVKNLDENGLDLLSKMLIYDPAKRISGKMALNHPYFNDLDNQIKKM
cdc2/cyclinB, sequence (P14635 whole entry, further chain): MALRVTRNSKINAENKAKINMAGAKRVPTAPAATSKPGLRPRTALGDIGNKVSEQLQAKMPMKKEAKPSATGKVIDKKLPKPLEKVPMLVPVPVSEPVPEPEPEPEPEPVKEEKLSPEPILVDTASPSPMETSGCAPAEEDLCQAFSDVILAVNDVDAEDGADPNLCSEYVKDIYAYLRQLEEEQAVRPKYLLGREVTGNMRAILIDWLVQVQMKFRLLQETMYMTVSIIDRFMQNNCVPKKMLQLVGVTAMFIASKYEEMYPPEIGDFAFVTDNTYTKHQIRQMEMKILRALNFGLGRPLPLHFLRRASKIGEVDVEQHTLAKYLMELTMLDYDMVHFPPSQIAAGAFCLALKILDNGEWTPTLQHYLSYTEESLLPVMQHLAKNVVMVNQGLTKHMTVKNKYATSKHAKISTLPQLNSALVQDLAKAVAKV
cdk4/D, sequence (P11802 whole entry): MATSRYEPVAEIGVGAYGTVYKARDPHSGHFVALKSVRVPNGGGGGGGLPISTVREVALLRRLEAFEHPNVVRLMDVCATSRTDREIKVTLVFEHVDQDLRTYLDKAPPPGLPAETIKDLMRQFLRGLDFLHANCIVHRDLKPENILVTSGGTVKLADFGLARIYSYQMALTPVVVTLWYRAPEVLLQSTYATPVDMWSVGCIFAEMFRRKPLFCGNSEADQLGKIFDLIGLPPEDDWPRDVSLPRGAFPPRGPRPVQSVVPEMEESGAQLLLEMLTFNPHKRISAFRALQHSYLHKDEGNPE
cdk4/D, sequence (P24385 whole entry, further chain): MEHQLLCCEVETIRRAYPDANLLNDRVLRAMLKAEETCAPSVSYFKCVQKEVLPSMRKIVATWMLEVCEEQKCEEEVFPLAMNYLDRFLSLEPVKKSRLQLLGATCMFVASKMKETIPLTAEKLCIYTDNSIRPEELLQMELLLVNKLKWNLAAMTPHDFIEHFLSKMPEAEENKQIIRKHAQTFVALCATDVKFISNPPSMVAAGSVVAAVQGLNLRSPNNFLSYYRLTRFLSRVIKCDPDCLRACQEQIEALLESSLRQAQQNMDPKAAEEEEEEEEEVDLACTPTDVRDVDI
Protocol for cdc2/cyclinB: Cyclin-Dependent Kinase Assays (cdk2/cyclinE, cdk2/cyclinA, cdc2/cyclinB)
All components except the ATP were added to the wells, and the plate was placed on a plate mixer for 2 minutes. The reaction was begun by addition of [^32P]ATP, and the plate was incubated at 25° C. for 15 minutes. The reaction was terminated by addition of 0.1 mL of 20% TCA. The plate was kept at 4° C. for at least 1 hour to allow the substrate to precipitate. The wells were then washed five times with 0.2 mL of 10% TCA and ^32p incorporation determined with a beta plate counter (Wallac Inc., Gaithersburg, Md.).

As for `CCC(C)n1c(=O)ccc2cnc(Nc3ccc(O)c(Cl)c3)nc21` (stereo not drawn) [Example 452, 8-sec-Butyl-2-(3-chloro-4-hydroxy-phenylamino)-8H-pyrido[2,3-d]pyrimidin-7-one], the IC50 at cdc2/cyclinB came to 25.5 nM; at cdk4/D, 114 nM; against cdk2/cyclinA (cdk2/A IC50) it was 40 nM; against cdk2/cyclinE (cdk2/E IC50) it was 22 nM; against Cdk5/p25, 13 nM.

With `CCC(C)n1c(=O)ccc2cnc(Nc3cccc([N+](=O)[O-])c3)nc21` (stereo not drawn) [Example 453, 8-sec-Butyl-2-(3-nitro-phenylamino)-8H-pyrido[2,3-d]pyrimidin-7-one], the IC50 was determined as 51.5 nM against cdc2/cyclinB; 330 nM at cdk4/D; 105 nM at cdk2/cyclinA (cdk2/A IC50); 52.7 nM on cdk2/cyclinE (cdk2/E IC50); 37 nM against Cdk5/p25.

For `CCC(C)n1c(=O)ccc2cnc(Nc3ccc(OC)c(OC)c3)nc21` (stereo not drawn) [Example 454, 8-sec-Butyl-2-(3,4-dimethoxy-phenylamino)-8H-pyrido[2,3-d]pyrimidin-7-one], the IC50 was 59.5 nM against cdc2/cyclinB; 262 nM at cdk4/D; 115 nM against cdk2/cyclinA (cdk2/A IC50); 68.3 nM on cdk2/cyclinE (cdk2/E IC50); 21.5 nM against Cdk5/p25.

With `CCC(C)n1c(=O)ccc2cnc(Nc3ccc(OC)cc3)nc21` (stereo not drawn) [Example 455, 8-sec-Butyl-2-(4-methoxy-phenylamino)-8H-pyrido[2,3-d]pyrimidin-7-one], the IC50 was found to be 98.5 nM against cdc2/cyclinB; 110 nM at cdk4/D; 170 nM at cdk2/cyclinA (cdk2/A IC50); 463 nM against cdk2/cyclinE (cdk2/E IC50); 50.5 nM against Cdk5/p25.

With `CCC(C)n1c(=O)ccc2cnc(Nc3ccc(Cl)c(C)c3)nc21` (stereo not drawn) [Example 456, 8-sec-Butyl-2-(4-chloro-3-methyl-phenylamino)-8H-pyrido[2,3-d]pyrimidin-7-one], the IC50 against cdc2/cyclinB came to 130 nM; on cdk4/D, 130 nM; at cdk2/cyclinA (cdk2/A IC50), 310 nM; at cdk2/cyclinE (cdk2/E IC50), 110 nM; on Cdk5/p25, 25 nM.

For `CCC(C)n1c(=O)ccc2cnc(Nc3cc(OC)c(OC)c(OC)c3)nc21` (stereo not drawn) [Example 457, 8-sec-Butyl-2-(3,4,5-trimethoxy-phenylamino)-8H-pyrido[2,3-d]pyrimidin-7-one], the IC50 at cdc2/cyclinB was determined as 340 nM; on cdk4/D, 2400 nM; at cdk2/cyclinA (cdk2/A IC50), 760 nM; against cdk2/cyclinE (cdk2/E IC50), 250 nM; against Cdk5/p25, 280 nM.

For the compound `CCC(C)n1c(=O)ccc2cnc(Nc3ccc(F)c(C(F)(F)F)c3)nc21` (stereo not drawn) [Example 458, 8-sec-Butyl-2-(4-fluoro-3-trifluoromethyl-phenylamino)-8H-pyrido[2,3-d]pyrimidin-7-one], the IC50 was determined as 150 nM against cdc2/cyclinB; 1700 nM on cdk4/D; 280 nM at cdk2/cyclinA (cdk2/A IC50); 100 nM against cdk2/cyclinE (cdk2/E IC50); 29 nM against Cdk5/p25.

For the compound `CCC(C)n1c(=O)ccc2cnc(Nc3cc([N+](=O)[O-])ccc3F)nc21` (stereo not drawn) [Example 459, 8-sec-Butyl-2-(2-fluoro-5-nitro-phenylamino)-8H-pyrido[2,3-d]pyrimidin-7-one], the IC50 at cdc2/cyclinB is 491 nM; on cdk4/D, 216 nM; at cdk2/cyclinA (cdk2/A IC50), 1200 nM; on cdk2/cyclinE (cdk2/E IC50), 316 nM; at Cdk5/p25, 196 nM.

As for `CCC(C)n1c(=O)ccc2cnc(Nc3ccc(F)c(Cl)c3)nc21` (stereo not drawn) [Example 460, 8-sec-Butyl-2-(3-chloro-4-fluoro-phenylamino)-8H-pyrido[2,3-d]pyrimidin-7-one], the IC50 against cdc2/cyclinB is 140 nM; at cdk4/D, 160 nM; against cdk2/cyclinA (cdk2/A IC50), 260 nM; on cdk2/cyclinE (cdk2/E IC50) it was 73 nM; against Cdk5/p25 it was 36 nM.

Take `CCC(C)n1c(=O)ccc2cnc(Nc3cc(Cl)c(Cl)c(Cl)c3)nc21` (stereo not drawn) [Example 461, 8-sec-Butyl-2-(3,4,5-trichloro-phenylamino)-8H-pyrido[2,3-d]pyrimidin-7-one]: the IC50 at cdc2/cyclinB worked out at 460 nM; on cdk4/D it was 550 nM; against cdk2/cyclinA (cdk2/A IC50), 1800 nM; on cdk2/cyclinE (cdk2/E IC50), 780 nM; on Cdk5/p25 it was 82 nM.

Take `CCC(C)n1c(=O)ccc2cnc(Nc3cc(OC)cc(C(F)(F)F)c3)nc21` (stereo not drawn) [Example 463, 8-sec-Butyl-2-(3-methoxy-5-trifluoromethyl-phenylamino)-8H-pyrido[2,3-d]pyrimidin-7-one]: the IC50 at cdc2/cyclinB is 300 nM; on cdk4/D, 250 nM; on cdk2/cyclinA (cdk2/A IC50) it was 2000 nM; against cdk2/cyclinE (cdk2/E IC50), 660 nM; against Cdk5/p25, 180 nM.

As to `CCC(C)n1c(=O)ccc2cnc(Nc3ccc(I)c(Cl)c3)nc21` (stereo not drawn) [Example 464, 8-sec-Butyl-2-(3-chloro-4-iodo-phenylamino)-8H-pyrido[2,3-d]pyrimidin-7-one], the IC50 on cdc2/cyclinB came to 170 nM; at cdk4/D, 150 nM; on cdk2/cyclinA (cdk2/A IC50) it was 310 nM; on cdk2/cyclinE (cdk2/E IC50) it was 130 nM; on Cdk5/p25, 17 nM.

`CCC(C)n1c(=O)ccc2cnc(Nc3ccc(C)c(I)c3)nc21` (stereo not drawn) [Example 465]: the IC50 against cdc2/cyclinB worked out at 76 nM; on cdk4/D, 100 nM; against cdk2/cyclinA (cdk2/A IC50), 260 nM; at cdk2/cyclinE (cdk2/E IC50), 56 nM; against Cdk5/p25, 8.8 nM.

As to `CCC(C)n1c(=O)ccc2cnc(Nc3ccc(C)c(Cl)c3)nc21` (stereo not drawn) [Example 467, 8-sec-Butyl-2-(3-chloro-4-methyl-phenylamino)-8H-pyrido[2,3-d]pyrimidin-7-one], the IC50 was 190 nM at cdc2/cyclinB; 96 nM on cdk4/D; 270 nM against cdk2/cyclinA (cdk2/A IC50); 97 nM against cdk2/cyclinE (cdk2/E IC50); 8 nM on Cdk5/p25.

`CCC(C)n1c(=O)ccc2cnc(Nc3ccc(Cl)c(C(F)(F)F)c3)nc21` (stereo not drawn) [Example 468, 8-sec-Butyl-2-(4-chloro-3-trifluoromethyl-phenylamino)-8H-pyrido[2,3-d]pyrimidin-7-one]: the IC50 against cdc2/cyclinB came out at 340 nM; on cdk4/D it was 950 nM; against cdk2/cyclinA (cdk2/A IC50), 530 nM; on cdk2/cyclinE (cdk2/E IC50) it was 330 nM; against Cdk5/p25 it was 26.5 nM.

For `CCC(C)n1c(=O)ccc2cnc(Nc3cccc(S(N)(=O)=O)c3)nc21` (stereo not drawn) [Example 469, 3-(8-sec-Butyl-7-oxo-7,8-dihydro-pyrido[2,3-d]pyrimidin-2-ylamino)-benzenesulfonamide], the IC50 on cdc2/cyclinB is 90 nM; on cdk4/D, 30 nM; against cdk2/cyclinA (cdk2/A IC50) it was 240 nM; at cdk2/cyclinE (cdk2/E IC50) it was 46 nM; at Cdk5/p25, 9.6 nM.

Regarding `CCC(C)n1c(=O)ccc2cnc(Nc3ccc4c(c3)CCCC4=O)nc21` (stereo not drawn) [Example 470, 8-sec-Butyl-2-(5-oxo-5,6,7,8-tetrahydro-naphthalen-2-ylamino)-8H-pyrido[2,3-d]pyrimidin-7-one], the IC50 at cdc2/cyclinB stood at 67 nM; at cdk4/D, 110 nM; at cdk2/cyclinA (cdk2/A IC50) it was 150 nM; at cdk2/cyclinE (cdk2/E IC50), 50 nM; on Cdk5/p25, 6.1 nM.

With `CCC(C)n1c(=O)ccc2cnc(Nc3ccc(N(C)C(C)=O)cc3)nc21` (stereo not drawn) [Example 471, N-[4-(8-sec-Butyl-7-oxo-7,8-dihydro-pyrido[2,3-d]pyrimidin-2-ylamino)-phenyl]-N-methyl-acetamide], the IC50 at cdc2/cyclinB stood at 340 nM; on cdk4/D, 120 nM; against cdk2/cyclinA (cdk2/A IC50) it was 530 nM; against cdk2/cyclinE (cdk2/E IC50), 220 nM; at Cdk5/p25 it was 49 nM.

As to `CCC(C)n1c(=O)ccc2cnc(Nc3cc(F)cc(F)c3)nc21` (stereo not drawn) [Example 472, 8-sec-Butyl-2-(3,5-difluoro-phenylamino)-8H-pyrido[2,3-d]pyrimidin-7-one], the IC50 at cdc2/cyclinB was 250 nM; at cdk4/D, 370 nM; against cdk2/cyclinA (cdk2/A IC50) it was 150 nM; on cdk2/cyclinE (cdk2/E IC50), 200 nM; against Cdk5/p25, 52 nM.

For `CCC(C)n1c(=O)ccc2cnc(Nc3ccc(C#N)cc3)nc21` (stereo not drawn) [Example 474, 4-(8-sec-Butyl-7-oxo-7,8-dihydro-pyrido[2,3-d]pyrimidin-2-ylamino)-benzonitrile], the IC50 on cdc2/cyclinB came to 240 nM; on cdk4/D, 210 nM; against cdk2/cyclinA (cdk2/A IC50) it was 110 nM; against cdk2/cyclinE (cdk2/E IC50), 140 nM; against Cdk5/p25 it was 41 nM.

Turning to `CCC(C)n1c(=O)ccc2cnc(Nc3ccc(F)c([N+](=O)[O-])c3)nc21` (stereo not drawn) [Example 475, 8-sec-Butyl-2-(4-fluoro-3-nitro-phenylamino)-8H-pyrido[2,3-d]pyrimidin-7-one], the IC50 was 1100 nM against cdc2/cyclinB; 1400 nM on cdk4/D; 1500 nM against cdk2/cyclinA (cdk2/A IC50); 820 nM at cdk2/cyclinE (cdk2/E IC50); 480 nM on Cdk5/p25.

With `CCC(C)n1c(=O)ccc2cnc(Nc3ccc(C)c(C)c3)nc21` (stereo not drawn) [Example 476, 8-sec-Butyl-2-(3,4-dimethyl-phenylamino)-8Hi-pyrido[2,3-d]pyrimidin-7-one], the IC50 against cdc2/cyclinB stood at 170 nM; at cdk4/D it was 230 nM; at cdk2/cyclinA (cdk2/A IC50), 160 nM; against cdk2/cyclinE (cdk2/E IC50), 200 nM; at Cdk5/p25, 31 nM.

For the compound `CCC(CC)n1c(=O)ccc2cnc(Nc3ccc(F)c(Cl)c3)nc21` [Example 481, 2-(3-Chloro-4-fluoro-phenylamino)-8-(1-ethyl-propyl)-8H-pyrido[2,3-d]pyrimidin-7-one], the IC50 against cdc2/cyclinB was determined as 134 nM; at cdk4/D, 938 nM; against cdk2/cyclinA (cdk2/A IC50) it was 418 nM; at cdk2/cyclinE (cdk2/E IC50) it was 69.3 nM; against Cdk5/p25, 39.1 nM.

As for `CCC(CC)n1c(=O)ccc2cnc(Nc3ccc(C)c(F)c3)nc21` [Example 482, 8-(1-Ethyl-propyl)-2-(3-fluoro-4-methyl-phenylamino)-8H-pyrido[2,3-d]pyrimidin-7-one], the IC50 against cdc2/cyclinB is 214 nM; on cdk4/D it was 166 nM; against cdk2/cyclinA, 597 nM; on cdk2/cyclinE, 152 nM; at Cdk5/p25 it was 63.2 nM.
